Laboratory results taken from the supplement of paper PMC10307832.

Columns and labels:
Assay in all cases: relative viability (nuclei count vs DMSO), 5 days (fraction); higher = more cells survive
AZD5582 + OSI-027 = compound: C[C@@H](C(=O)N[C@@H](C1CCCCC1)C(=O)N2CCC[C@H]2C(=O)N[C@@H]3[C@@H](CC4=CC=CC=C34)OCC#CC#CCO[C@@H]5CC6=CC=CC=C6[C@@H]5NC(=O)[C@@H]7CCCN7C(=O)[C@H](C8CCCCC8)NC(=O)[C@H](C)NC)NC [AZD5582] + COc1cccc2cc(-c3nc([C@H]4CC[C@H](C(=O)O)CC4)n4ncnc(N)c34)[nH]c12 [OSI-027] (partner 0.5 µM)
In short: (§1)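 Lung cancer cell lines, seeded in 1536-well plates, were treated the following day by pin tool with a single drug or with five library-drug doses (not always all listed) in √10 steps on top of a fixed anchor-drug dose. Cells were fixed and nuclei stained in one step after 5 days, and nuclei were counted. Relative viability is the nuclei count for treated wells divided by that for vehicle wells, reported as medians of duplicate plates.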

[1] = compound: Cn1nnc2c(C(N)=O)ncn2c1=O [Temozolomide] + Nc1nc2[nH]cc(CCc3ccc(C(=O)N[C@@H](CCC(=O)O)C(=O)O)cc3)c2c(=O)[nH]1 [Pemetrexed] (partner 0.2 µM)
In short: as §1

AZD5582 = compound: C[C@@H](C(=O)N[C@@H](C1CCCCC1)C(=O)N2CCC[C@H]2C(=O)N[C@@H]3[C@@H](CC4=CC=CC=C34)OCC#CC#CCO[C@@H]5CC6=CC=CC=C6[C@@H]5NC(=O)[C@@H]7CCCN7C(=O)[C@H](C8CCCCC8)NC(=O)[C@H](C)NC)NC [AZD5582]
In short: (§2)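 Five library-drug doses, separated by factors of √10, were pinned into 1536-well plates holding lung cancer cell lines after an overnight stay at 37 °C. Cells were fixed, permeabilised and Hoechst-stained in one step after 5 days without medium change, then imaged at 4×. Viability compares treated-well with vehicle-well nuclei, counted in MetaXpress, as a median across plates. Passing plates had control CV below 25% and at least one doubling.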

Temozolomide = compound: Cn1nnc2c(C(N)=O)ncn2c1=O [Temozolomide]
In short: as §2

| Cell Line | relative viability (AZD5582 + OSI-027; first compound 0.001581 µM) | relative viability (AZD5582 + OSI-027; first compound 0.005 µM) | relative viability (AZD5582 + OSI-027; first compound 0.01581 µM) | relative viability (AZD5582 + OSI-027; first compound 0.05 µM) | relative viability ([1]; first compound 0.2 µM) | relative viability ([1]; first compound 0.6325 µM) | relative viability ([1]; first compound 2 µM) | relative viability ([1]; first compound 6.325 µM) | relative viability ([1]; first compound 20 µM) | relative viability (AZD5582; 0.001581 µM) | relative viability (AZD5582; 0.005 µM) | relative viability (AZD5582; 0.01581 µM) | relative viability (AZD5582; 0.05 µM) | relative viability (Temozolomide; 0.2 µM) | relative viability (Temozolomide; 0.6325 µM) | relative viability (Temozolomide; 2 µM) | relative viability (Temozolomide; 6.325 µM) | relative viability (Temozolomide; 20 µM) |
| --- | --- | --- | --- | --- | --- | --- | --- | --- | --- | --- | --- | --- | --- | --- | --- | --- | --- | --- |
| NCI-H2023 | 0.286 | 0.44 | 0.374 | 0.368 | 0.232 | 0.249 | 0.249 | 0.221 | 0.228 | 0.842 | 0.962 | 0.84 | 0.934 | 0.979 | 0.943 | 1.01 | 0.984 | 0.941 |
| NCI-H2085 | 0.499 | 0.902 | 0.578 | 0.367 | 1.04 | 0.951 | 0.979 | 0.926 | 0.744 | 1.05 | 1.08 | 0.998 | 0.993 | 1 | 1.02 | 1.02 | 0.964 | 0.949 |
| NCI-H2087 | 0.523 | 0.695 | 0.514 | 0.568 | 0.624 | 0.667 | 0.663 | 0.676 | 0.696 | 0.98 | 1.12 | 0.982 | 1.03 | 1.31 | 1.12 | 1.07 | 0.937 | 1.01 |
| NCI-H2126 | 0.709 | 0.703 | 0.522 | 0.607 | 0.573 | 0.653 | 0.762 | 0.666 | 0.67 | 0.93 | 1.04 | 0.808 | 0.901 | 0.957 | 1.03 | 1.05 | 0.98 | 1.03 |
| NCI-H2170 | 0.653 | 0.759 | 0.683 | 0.866 |  | 0.283 | 0.264 | 0.253 | 0.237 | 0.956 | 0.985 | 0.987 | 0.989 |  | 1.06 | 1 | 0.858 | 0.582 |
| NCI-H2228 | 0.524 | 0.749 | 0.62 | 0.237 | 0.383 | 0.349 | 0.348 | 0.266 | 0.352 | 1.01 | 1.05 | 0.942 | 0.538 | 1.19 | 0.928 | 1.15 | 0.881 | 1.05 |
| NCI-H2342 | 0.518 | 0.587 | 0.509 | 0.659 | 0.653 | 0.86 | 0.914 | 0.708 | 0.769 | 0.938 | 1.01 | 0.917 | 1.07 | 0.827 | 0.991 | 1.06 | 1.03 | 0.912 |
| NCI-H2347 | 0.335 | 0.388 | 0.364 | 0.456 | 0.466 | 0.447 | 0.429 | 0.426 | 0.461 | 0.956 | 1.03 | 0.919 | 0.979 | 1.06 | 1.16 | 1.08 | 0.979 | 0.976 |
| NCI-H2405 | 0.651 | 0.647 | 0.485 | 0.565 | 1.08 | 1.03 | 1.14 | 1.03 | 0.965 | 1 | 1.12 | 0.957 | 1.02 | 1.05 | 1 | 1.06 | 0.935 | 0.978 |
